According to EP3866826B1, “ANTIMICROBIAL PEPTIDES AND METHODS OF USING THE SAME” (priority 2018, dated 2020):
Where no end group is shown, it is not given here.

Assays:
[1] = Stability in serum, monitored via LC-MS/MS; assay type: in vitro ADME; settings: human serum for 72 hrs at 37°C monitored via LC-MS/MS
Procedure: (§1) Exemplary AMP RP557 was prepared in one gram lots at 98% purity or better. […] Furthermore, advances in solid and solution phase peptide chemistry has enabled Good Manufacturing Practice (GMP) material to be produced rapidly, economically in high yield and purity.

[2] = tested on: L929 fibroblast cells; assay: Cytotoxicity to mammalian cells, cell viability (FIG. 3C); assay type: cell-based
Procedure: The rapid destruction of pathogenic cells by potent broad-spectrum topical anti-infectives infer a theoretical reduced likelihood of developing bacterial resistance. […] Cell viability was performed using bioluminescent strains of P. aeruginosa 19660 (FIG. 3A), S. aureus 49525 (FIG. 3B) & L929 fibroblast cells (FIG. 3C) and imaged with the IVIS Lumina system. Data represents the mean of 3 measurements.

[3] = tested on: S. aureus 29213; assay: Resistance development by serial passage at sub-inhibitory concentrations, 30 passages (FIG. 4); assay type: cell-based
Procedure: (§2) FIG. 4A to 4B. […] Sub-inhibitory concentrations of RP557, gentamicin and clindamycin were incubated with P. aeruginosa 27853 and S. aureus 29213 for 24 hours. Bacteria showing growth in the highest concentration were re-passaged in fresh dilutions containing sub-minimum inhibitory concentration (MIC) levels of each component for 30 consecutive passages; means are shown.

[4] = tested on: P. aeruginosa 27853; assay: as above; assay type: cell-based
Procedure: as §2

[5] = tested on: gram-negative bacteria; A. baumannii and P. aeruginosa; gram-positive bacteria, S. aureus and MRSA and fungal strains; C. albicans, C. parapsilosis, C. krusei …; assay: Antimicrobial activity against multiple clinical isolates of bacteria and fungal strains; assay type: cell-based
Procedure: Thirty-four AMPs were synthesized and evaluated in three iterative rounds. Each AMP was evaluated for antimicrobial potency against 11 strains of bacteria, 7 strains of fungi and their cytotoxicity determined using L929 fibroblasts and human keratinocytes. The AMPs were evaluated for biofilm eradication and ability to induce antimicrobial resistance.

[6] = tested on: S. aureus, P. aeruginosa and Fuscobacterium ssp.; assay: Pharmacodynamic response in biofilm associated wounds, CFU counts of punch biopsies (FIG. 7); assay type: in vivo; settings: 2% RP557 applied 24 hours post inoculation; biopsies at 30 min, 180 min and 24 hours post treatment
Procedure: (§3) From the in vitro screening assays three AMPs were selected for further evaluation in a qualified porcine burn wound model infected with P. aeruginosa and S. aureus. Full thickness wounds were created with heated brass rod and 2cm trephine: approximately 10 minutes after homeostasis, wounds were infected with a 2:2:1 mixture of S. aureus, P. aeruginosa and Fuscobacterium ssp. Treatment of infected wounds began 24 hours post infection to allow for biofilm formation.
FIG. 7A-7B Pharmacodynamic Response to RP557. Twenty four hours post bacterial inoculation biofilm associated wounds were treated with 2% RP557. Punch biopsies were taken at 30 min, 180 min and 24 hours post treatment, homogenized, plated and CFUs counted. Statistical significance was calculated using the Holm-Sidak method. *p<0.05, ***p<0.001, ****p<0.0001, dAMP vs Control.

[7] = tested on: Candida 17-88 biofilm; assay: Inhibition of preformed biofilm, metabolic evaluation using XTT (FIG. 5); assay type: cell-based, Candida albicans; settings: added to preformed Candida 17-88 biofilm for 24 hours
Procedure: Fluconazole or RP557 were added to preformed Candida 17-88 biofilm for 24 hours and biofilm inhibition evaluated via metabolic evaluation using XTT, 2,3-bis (2-methoxy-4-nitro-5-sulfophenyl) [phenyl-amino)carbonyl]-2H. Data represent the mean±SD of triplicate measurements and statistical significance, compared to vehicle control, determined by one-way ANOVA followed by Dunnett's test (*p < 0.05, **p < 0.01, and ***p < 0.001).

[8] = tested on: S. aureus ATCC 6538; assay: Polymicrobial infected full-thickness thermal porcine burn model, bacterial counts (FIG. 6B); assay type: in vivo; settings: pig, single topical application, sampled after 24 hours
Procedure: as §3
(§4) Full thickness wounds were created with a heated brass rod and a trephine on the back of anesthetized pigs followed by infection with 2:2:1 mixture of S. aureus ATCC 6538 (FIG. 6B) and P. aeruginosa (porcine isolate) (FIG. 6A) and fusobacterium ssp. After 3 hours, 0, 0.1, 0.2, 1 or 2% RP557 were applied. After 24 hours, wounds were sampled by punch biopsy and bacterial counts, expressed as log (Colony Forming Units, CFUs/g) evaluated. Data is expressed as mean±SE of 8 replicates. Statistical significance, compared to vehicle, determined by one-way ANOVA followed by Dunnett's test (**p < 0.01, ****p < 0.0001).

[9] = Physiochemical properties of RP557 (hydrophilicity, solubility, pH stability); assay type: physicochemical; settings: extremes of pH (<4)
Procedure: as §1

[10] = tested on: C. albicans (ATCC 44858); assay: Vaginal infection rodent model of vulvovaginal candidiasis, fungal counts (FIG. 8); assay type: in vivo; settings: rats, 20 mg/mL IVG at 0.1 mL/rat twice daily for 3 days from 48 hr after infection, CFUs on Day 5 (p < 0.0001)
Procedure: FIG. 8A to 8B. RP557 topical treatment reduces rodent vaginal candidiasis. Effects of RP557, miconazole and oral fluconazole in the C. albicans (ATCC 44858) vaginal infection rodent model. On Day 0, rats were inoculated intravaginally (IVG) with C. albicans at 1.46 x 10^7 CFU/rat. RP557 and miconazole at 20 mg/mL were administered IVG at 0.1 mL/rat twice daily at 8 hr intervals starting from 48 hr after infection for 3 days. CFUs were evaluated on Day 5 with limit of detection (LOD) 0.7 CFU/rat. Significant difference, compared to vehicle, determined by one-way ANOVA followed by Dunnett's test (*p < 0.05, ****p < 0.0001). A separate group receiving oral fluconazole; *p < 0.05 versus 0.1 and 10 mg/kg fluconazole.

[11] = tested on: P. aeruginosa (porcine isolate); assay: Polymicrobial infected full-thickness thermal porcine burn model, bacterial counts (FIG. 6A); assay type: in vivo; settings: pig, single dose, 2% RP557 (p<0.0001), sampled after 24 hours
Procedure: as §3, §4

Sequence: RFCWKVCYKGICFKKCK (disulfide (positions not given here)) [RP557, 17 amino acids, hairpin structure formed by two disulfide bonds]
- stability in serum [1]: stable in serum
- cytotoxicity to mammalian cells [2]: not cytotoxic
- susceptibility of the resistant strain at the end of 30 serial passages (cross resistance) ([3]; clindamycin-resistant S. aureus): readily susceptible
- development of resistance ([3]; sub-inhibitory concentrations, 30 consecutive passages, S. aureus 29213): did not develop resistance
- susceptibility of the resistant strain at the end of 30 serial passages (cross resistance) ([4]; gentamicin-resistant P. aeruginosa): readily susceptible
- development of resistance ([4]; sub-inhibitory concentrations, 30 consecutive passages, P. aeruginosa 27853): did not develop resistance
- antimicrobial activity [5]: broad-spectrum antimicrobial activity
- pharmacodynamic response, CFUs in wounds [6]: Kills Infection Throughout a 24 Hour Period
- biofilm inhibition [7]: potent inhibitor
- S. aureus CFU counts ([8]; 0.2% RP557 (p < 0.01)): 2.11±1.75 log CFU/g tissue
- S. aureus CFU counts ([8]; 1% RP557 (p < 0.0001)): 1.46±2.05 log CFU/g tissue
- stability at extremes of pH [9]: stable
- fungal counts relative to the vehicle control group [10]: significant reductions
- number of viable P. aeruginosa bacteria [11]: 1.96±1.64 log CFU/g tissue
